Where only a bound is given, the exact number is not on record here.

The text below walks through data of patent US20260138961A1, “MODULATORS OF MITOCHONDRIAL DNA REPLICATION” (Pretzel Therapeutics, Inc., priority 2022, published 2026).

For the assay, the target named is T1, POLγA:G848S (Homo sapiens, UniProt P54098, G848S).
T1 sequence (P54098 1-1239 G848S): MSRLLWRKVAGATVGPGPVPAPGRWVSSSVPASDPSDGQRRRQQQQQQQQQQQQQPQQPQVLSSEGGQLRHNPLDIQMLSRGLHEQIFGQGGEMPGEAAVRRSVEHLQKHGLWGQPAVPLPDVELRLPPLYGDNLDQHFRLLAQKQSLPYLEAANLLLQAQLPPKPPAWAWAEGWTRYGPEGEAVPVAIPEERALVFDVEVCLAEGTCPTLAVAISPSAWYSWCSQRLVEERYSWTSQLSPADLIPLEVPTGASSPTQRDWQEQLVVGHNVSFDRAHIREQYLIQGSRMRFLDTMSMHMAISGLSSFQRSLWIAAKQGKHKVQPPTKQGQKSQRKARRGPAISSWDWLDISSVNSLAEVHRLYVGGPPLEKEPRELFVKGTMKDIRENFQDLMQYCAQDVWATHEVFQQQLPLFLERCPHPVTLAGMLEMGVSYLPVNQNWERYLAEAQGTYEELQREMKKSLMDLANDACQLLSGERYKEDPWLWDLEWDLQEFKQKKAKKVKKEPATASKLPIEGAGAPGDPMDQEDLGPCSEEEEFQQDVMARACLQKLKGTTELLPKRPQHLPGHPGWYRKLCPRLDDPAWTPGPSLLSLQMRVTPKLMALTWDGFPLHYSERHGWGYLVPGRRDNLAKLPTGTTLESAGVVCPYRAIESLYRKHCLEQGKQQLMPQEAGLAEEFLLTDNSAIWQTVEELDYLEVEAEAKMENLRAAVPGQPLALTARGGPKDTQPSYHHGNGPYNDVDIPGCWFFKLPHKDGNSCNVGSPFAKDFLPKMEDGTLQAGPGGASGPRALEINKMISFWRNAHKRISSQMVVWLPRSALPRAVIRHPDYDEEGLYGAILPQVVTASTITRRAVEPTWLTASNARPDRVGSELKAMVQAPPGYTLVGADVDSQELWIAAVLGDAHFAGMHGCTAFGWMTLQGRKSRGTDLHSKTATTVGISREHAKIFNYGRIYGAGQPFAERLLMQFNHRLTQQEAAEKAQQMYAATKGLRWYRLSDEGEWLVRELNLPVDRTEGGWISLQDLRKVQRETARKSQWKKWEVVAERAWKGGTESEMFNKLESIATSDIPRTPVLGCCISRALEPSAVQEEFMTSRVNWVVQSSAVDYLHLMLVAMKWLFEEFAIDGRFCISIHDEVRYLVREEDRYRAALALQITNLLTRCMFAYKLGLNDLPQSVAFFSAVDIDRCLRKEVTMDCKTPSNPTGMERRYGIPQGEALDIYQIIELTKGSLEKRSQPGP
T1 sequence (Q9UHN1 1-485 partner): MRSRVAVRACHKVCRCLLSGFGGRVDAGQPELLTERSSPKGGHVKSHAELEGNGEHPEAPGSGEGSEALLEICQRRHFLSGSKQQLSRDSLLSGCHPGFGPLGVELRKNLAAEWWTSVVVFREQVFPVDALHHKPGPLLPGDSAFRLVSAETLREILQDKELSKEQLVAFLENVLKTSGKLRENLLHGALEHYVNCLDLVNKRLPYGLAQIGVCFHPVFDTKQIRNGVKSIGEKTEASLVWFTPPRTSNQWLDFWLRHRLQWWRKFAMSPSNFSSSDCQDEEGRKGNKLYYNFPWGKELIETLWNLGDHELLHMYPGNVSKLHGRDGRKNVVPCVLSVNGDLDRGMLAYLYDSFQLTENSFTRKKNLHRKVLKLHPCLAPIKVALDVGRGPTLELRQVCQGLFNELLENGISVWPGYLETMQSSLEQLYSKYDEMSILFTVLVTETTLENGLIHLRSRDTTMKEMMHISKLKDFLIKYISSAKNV
The assay can be described thus: DNA polymerization assay, POLγA:G848S mutant. The assay is classed as biochemical. Conditions: stimulation of polymerase activity, primed M13mp18 ssDNA, 37° C. 2 hours; read-out: G848S AC50.
On to `Cc1cc(S(=O)(=O)Nc2cccc(C(=O)N[C@H](C)CO)c2)c(C)cc1Cl` [Example 51, (R)-3-((4-chloro-2,5-dimethylphenyl)sulfonamido)-N-(1-hydroxypropan-2-yl)benzamide], for which the AC50 stood at 44 µM. In the case of `Cc1cc(S(=O)(=O)Nc2cccc(C(=O)N3CCN(C)CC3)c2)c(C)cc1Cl` [Example 52, 4-chloro-2,5-dimethyl-N-(3-(4-methylpiperazine-1-carbonyl)phenyl)benzenesulfonamide] it was above 100 µM.

Take `Cc1cc(S(=O)(=O)Nc2cccc(C(=O)NCCO)c2)c(C)cc1Cl` [Example 53, 3-((4-chloro-2,5-dimethylphenyl)sulfonamido)-N-(2-hydroxyethyl)benzamide]: the AC50 was 63 µM. Turning to `Cc1cc(S(=O)(=O)Nc2cccc(C(=O)N3CCN(C)C[C@H]3C)c2)c(C)cc1Cl` [Example 54, (R)-4-chloro-N-(3-(2,4-dimethylpiperazine-1-carbonyl)phenyl)-2,5-dimethylbenzenesulfonamide], the AC50 was 21 µM. For the molecule `Cc1cc(S(=O)(=O)Nc2cccc(C(=O)N3CCN(CCO)CC3)c2)c(C)cc1Cl` [Example 55, 4-chloro-N-(3-(4-(2-hydroxyethyl)piperazine-1-carbonyl)phenyl)-2,5-dimethylbenzenesulfonamide], the AC50 was above 100 µM. Take `Cc1cc(S(=O)(=O)Nc2cccc(C(=O)N(C)CCO)c2)c(C)cc1Cl` [Example 56, 3-((4-chloro-2,5-dimethylphenyl)sulfonamido)-N-(2-hydoxyethyl)-N-methylbenzamide]: the concentration at half-maximal activity (AC50) was 56 µM.

In the case of `Cc1cc(S(=O)(=O)Nc2cccc(C(=O)N3CCC[C@H]3C)c2F)c(C)cc1Cl` [Example 57, (R)-4-chloro-N-(2-fluoro-3-(2-methylpyrrolidine-1-carbonyl)phenyl)-2,5-dimethylbenzenesulfonamide], the AC50 was above 100 µM. Regarding `COCCN(C)C(=O)c1cccc(NS(=O)(=O)c2cc(C)c(Cl)cc2C)c1` [Example 58, 3-((4-chloro-2,5-dimethylphenyl)sulfonamido)-N-(2-methoxyethyl)-N-methylbenzamide], the concentration at half-maximal activity (AC50) was found to be 46 µM. Take `O=S(=O)(Nc1cccc(-c2nccs2)c1)c1ccc(Cl)cc1` [Example 59, 4-chloro-N-(3-(thiazol-2-yl)phenyl)benzenesulfonamide]: the AC50 is above 100 µM. In the case of `Cc1ccc(C)c(S(=O)(=O)Nc2cccc(-c3nccs3)c2)c1` [Example 60], the AC50 turned out to be 2 µM. For `Cc1cc(S(=O)(=O)Nc2cc(-c3nccs3)ccc2F)c(C)cc1Cl` [Example 61, 4-chloro-N-(2-fluoro-5-(thiazol-2-yl)phenyl)-2,5-dimethylbenzenesulfonamide], the AC50 was above 100 µM. Regarding `Cc1cc(S(=O)(=O)Nc2cc(F)cc(-c3nccs3)c2)c(C)cc1Cl` [Example 62, 4-chloro-N-(3-fluoro-5-(thiazol-2-yl)phenyl)-2,5-dimethylbenzenesulfonamide], the AC50 was above 100 µM. In the case of `Cc1cc(S(=O)(=O)Nc2ccc(F)c(-c3nccs3)c2)c(C)cc1Cl` [Example 63, 4-chloro-N-(4-fluoro-3-(thiazol-2-yl)phenyl)-2,5-dimethylbenzenesulfonamide], the half-maximal activity concentration (AC50) was above 100 µM. Next, `Cc1cc(S(=O)(=O)Nc2cccc(-c3cc(C4CC4)[nH]n3)c2)c(C)cc1Cl` [Example 64, 4-chloro-N-(3-(5-cyclopropyl-1H-pyrazol-3-yl)phenyl)-2,5-dimethylbenzenesulfonamide]: 1 µM.

On to `CC[C@@H]1CCCN1C(=O)c1cccc(NS(=O)(=O)c2cc(C)c(Cl)cc2C)c1` [Example 65, (R)-4-chloro-N-(3-(2-ethylpyrrolidine-1-carbonyl)phenyl)-2,5-dimethylbenzenesulfonamide], for which the AC50 was 12 µM.

`Cc1cc(-c2cccc(NS(=O)(=O)c3cc(C)c(Cl)cc3C)c2)n[nH]1` [Example 66, 4-chloro-2,5-dimethyl-N-(3-(5-methyl-1H-pyrazol-3-yl)phenyl)benzenesulfonamide]: the concentration at half-maximal activity (AC50) worked out at 1 µM.

As a reminder, the AC50 is the midpoint of the concentration-response curve, whichever way the signal moves.
